Measured values: publication PMC7377239, “Cardiovascular Effects of Polychlorinated Biphenyls and Their Major Metabolites” (Environmental Health Perspectives, 2020)
Like-named read-outs stand apart in the source and are kept apart here.

System: iCell cardiomyocytes (human iPSC-derived cardiomyocytes)
Assay: Intracellular Ca2+ flux / beating parameters in iCell cardiomyocytes (FLIPR tetra), 90 min or 24 h
Format: cell-based
Details: Homo sapiens, Cardiomyocyte, 0.00 µM = 100.00; for activity at 0.1 µM: 0.10 µM
How it was run: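 Gelatin-plated iCell cardiomyocytes (5,000/well) were dye-loaded for 2 h at 37 °C, then exposed for 90 min or 24 h to PCBs/metabolites (5× plates at 0.05–500 µM; 0.5% DMSO final) in triplicate. Ca2+ flux was read for 100 s at 8 Hz and 37 °C. Peak height, frequency, spacing CV and decay/rise ratio were vehicle-normalized and fitted with a four-parameter logistic model, with POD set at 1 SD of vehicle.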

[1] = 1.5 h, read-out: cm.amp.avg.90min
[2] = 1.5 h, read-out: cm.amp.cv.90min
[3] = 1.5 h, read-out: cm.decay.rise.90min
[4] = 1.5 h, read-out: cm.spacing.cv.90min
[5] = 24 h, read-out: cm.amp.avg.24hrs
[6] = 24 h, read-out: cm.amp.cv.24hrs
[7] = 24 h, read-out: cm.decay.rise.24hrs
[8] = 24 h, read-out: cm.spacing.cv.24hrs

SMILES: Clc1cccc(-c2cccc(Cl)c2)c1 [PCB11]
- activity at 0.01 µM [1]: 99.2%
- activity at 0.01 µM [2]: 103%
- activity at 0.01 µM (1.5 h, read-out: cm.bpm.90min): 103%
- activity at 0.01 µM [3]: 101%
- activity at 0.01 µM [4]: 93.4%
- activity at 0.1 µM [1]: 102%
- activity at 0.1 µM [2]: 91.4%
- activity at 0.1 µM (1.5 h, read-out: cm.bpm.90min): 103%
- activity at 0.1 µM [3]: 98.2%
- activity at 0.1 µM [4]: 89.8%
- activity at 1 µM [1]: 105%
- activity at 1 µM [2]: 97.9%
- activity at 1 µM (1.5 h, read-out: cm.bpm.90min): 95.3%
- activity at 1 µM [3]: 99.6%
- activity at 1 µM [4]: 107%
- activity at 10 µM [1]: 94.8%
- activity at 10 µM [2]: 99.8%
- activity at 10 µM (1.5 h, read-out: cm.bpm.90min): 114%
- activity at 10 µM [3]: 91.8%
- activity at 10 µM [4]: 101%
- activity at 100 µM [1]: 22.3%
- activity at 100 µM [2]: 139%
- activity at 100 µM (1.5 h, read-out: cm.bpm.90min): 0%
- activity at 100 µM [3]: 54.6%
- activity at 100 µM [4]: 66.2%
- activity at 0.01 µM [5]: 137%
- activity at 0.01 µM [6]: 77.1%
- activity at 0.01 µM (24 h, read-out: cm.bpm.24hrs): 108%
- activity at 0.01 µM [7]: 93.4%
- activity at 0.01 µM [8]: 127%
- activity at 0.1 µM [5]: 134%
- activity at 0.1 µM [6]: 69.8%
- activity at 0.1 µM (24 h, read-out: cm.bpm.24hrs): 105%
- activity at 0.1 µM [7]: 98.1%
- activity at 0.1 µM [8]: 98.2%
- activity at 1 µM [5]: 130%
- activity at 1 µM [6]: 77.5%
- activity at 1 µM (24 h, read-out: cm.bpm.24hrs): 93.6%
- activity at 1 µM [7]: 108%
- activity at 1 µM [8]: 92.8%
- activity at 10 µM [5]: 110%
- activity at 10 µM [6]: 90.8%
- activity at 10 µM (24 h, read-out: cm.bpm.24hrs): 106%
- activity at 10 µM [7]: 111%
- activity at 10 µM [8]: 98.2%
- activity at 100 µM [5]: 0%
- activity at 100 µM [6]: 0%
- activity at 100 µM (24 h, read-out: cm.bpm.24hrs): 0%
- activity at 100 µM [7]: 0%
- activity at 100 µM [8]: 0%
